Experimental data published in paper PMC7604503, “Cyclic peptides can engage a single binding pocket through highly divergent modes” (Proceedings of the National Academy of Sciences of the …, 2020).
Where a SMILES comes first, the peptide text is derived from it. Bridges are numbered along the chain shown (N, C = ends).

Legend:
[1] = target: T1, BRD2-BD1 (Homo sapiens, UniProt P25440); experiment: SPR binding of peptides to immobilised biotinylated BET bromodomain
T1 construct: human BRD2 (BD1: 65-194; BD2: 347-455); Avi tag (biotinylated); made in house; host or cells: E. coli BL21(DE3)
T1 sequence (P25440 65-194): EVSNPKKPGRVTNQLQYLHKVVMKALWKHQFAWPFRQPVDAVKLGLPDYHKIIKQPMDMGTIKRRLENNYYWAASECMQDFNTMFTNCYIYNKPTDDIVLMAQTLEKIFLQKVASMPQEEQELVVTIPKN
Protocol: (§1) We next assessed the ability of each of the three lead peptides to bind BRD3-BD1. […] To assess selectivity for other BET BDs, we used SPR to determine the binding affinity of each peptide toward the remaining BDs from BRD2, BRD3, and BRD4 (Fig. 1B). […]
(§2) Peptides were synthesised as C-terminal amides using standard fluorenylmethyloxycarbonyl (Fmoc)-strategy solid-phase chemistry using a Syro I automated synthesiser (Biotage) and NovaPEG Rink Amide resin (Novabiochem). Couplings were performed with HBTU/HOBt (1:1) and 6 equivalents of each amino acid. Double couplings were performed for arginine residues.
(§3) Following the final amino acid coupling reaction, the Fmoc group was removed and resin incubated with N-(chloroacetoxy)succinimide (0.2 M in DMF, 1 h, RT). Resin was washed with DMF (5 times) and DCM (5 times) and dried in vacuo.
(§4) Linear peptides were cleaved from the resin by incubation (3 h, RT) with a trifluoroacetic acid (TFA) cleavage cocktail (TFA/2,2’-(ethylenedioxy)diethanethiol/triisopropyl silane/H2O (92.5:2.5:2.5:2.5)) before filtration, concentration in vacuo and precipitation with ice-cold diethyl ether. Crude peptides were washed with diethyl ether (5 times), dried and resuspended in DMSO. The pH was raised to >8 using triethylamine to allow cyclisation. Following incubation (1 h, RT), peptides were re-acidified with TFA for purification.
(§5) Crude peptides were purified by reverse-phase high-performance liquid chromatography using a Chromolith Prep column (Merck) on a Prominence LC-20AP system (Shimadzu) (Solvent A: 0.1% TFA in H2O, Solvent B: 0.1% TFA in acetonitrile) to >95% purity as determined by mass spectrometry (Fig. S17). Purified peptides were reconstituted in DMSO and concentrations determined from their absorbance at 280 nm in 5% DMSO using predicted extinction coefficients.
(§6) Surface plasmon resonance (SPR)
(§7) Measurements were conducted on a T200 or S200 (GE Healthcare) and data analysed using the Biacore Insight Evaluation Software. Experiments were performed at 4 °C in single cycle kinetics mode. Biotinylated BET bromodomains were immobilised on a CAP chip (GE Healthcare) with a […]
(§8) pH 7.5 was used as the running buffer. […]

[2] = target: T2, BRD3-BD2 (Homo sapiens, UniProt Q15059); experiment: as above
T2 construct: Avi tag (biotinylated); made in house; host or cells: E. coli BL21(DE3)
T2 sequence (Q15059 307-419): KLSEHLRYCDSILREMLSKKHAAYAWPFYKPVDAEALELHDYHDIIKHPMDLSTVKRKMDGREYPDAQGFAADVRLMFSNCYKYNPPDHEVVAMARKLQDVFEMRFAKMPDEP
Protocol: as §1, §2, §3, §4, §5, §6, §7, §8

[3] = target: T3, BRD4-BD1 (Homo sapiens, UniProt O60885); experiment: as above
T3 construct: BRD4 (BD1: 42-168; BD2: 348-464); Avi tag (biotinylated); made in house; host or cells: E. coli Rosetta2(DE3)
Protocol: as §1, §2, §3, §4, §5, §6, §7, §8

[4] = target: T4, BRD4-BD2 (Homo sapiens, UniProt O60885); experiment: as above
T4 construct: BRD4 (BD1: 42-168; BD2: 348-464); Avi tag (biotinylated); made in house; host or cells: E. coli BL21(DE3)
Protocol: as §1, §2, §3, §4, §5, §6, §7, §8

[5] = target: T5, BRD1 (Homo sapiens, UniProt O95696); experiment: BROMOscan competition binding assay (BromoMAX, Eurofins DiscoverX); settings: for Percent Control BRD1: compound concentration 1000 nM, lower percentage control = stronger affinity
T5 construct: purchased Eurofins DiscoverX (BROMOscan, BromoMAX)
T5 sequence (O95696 1-1058): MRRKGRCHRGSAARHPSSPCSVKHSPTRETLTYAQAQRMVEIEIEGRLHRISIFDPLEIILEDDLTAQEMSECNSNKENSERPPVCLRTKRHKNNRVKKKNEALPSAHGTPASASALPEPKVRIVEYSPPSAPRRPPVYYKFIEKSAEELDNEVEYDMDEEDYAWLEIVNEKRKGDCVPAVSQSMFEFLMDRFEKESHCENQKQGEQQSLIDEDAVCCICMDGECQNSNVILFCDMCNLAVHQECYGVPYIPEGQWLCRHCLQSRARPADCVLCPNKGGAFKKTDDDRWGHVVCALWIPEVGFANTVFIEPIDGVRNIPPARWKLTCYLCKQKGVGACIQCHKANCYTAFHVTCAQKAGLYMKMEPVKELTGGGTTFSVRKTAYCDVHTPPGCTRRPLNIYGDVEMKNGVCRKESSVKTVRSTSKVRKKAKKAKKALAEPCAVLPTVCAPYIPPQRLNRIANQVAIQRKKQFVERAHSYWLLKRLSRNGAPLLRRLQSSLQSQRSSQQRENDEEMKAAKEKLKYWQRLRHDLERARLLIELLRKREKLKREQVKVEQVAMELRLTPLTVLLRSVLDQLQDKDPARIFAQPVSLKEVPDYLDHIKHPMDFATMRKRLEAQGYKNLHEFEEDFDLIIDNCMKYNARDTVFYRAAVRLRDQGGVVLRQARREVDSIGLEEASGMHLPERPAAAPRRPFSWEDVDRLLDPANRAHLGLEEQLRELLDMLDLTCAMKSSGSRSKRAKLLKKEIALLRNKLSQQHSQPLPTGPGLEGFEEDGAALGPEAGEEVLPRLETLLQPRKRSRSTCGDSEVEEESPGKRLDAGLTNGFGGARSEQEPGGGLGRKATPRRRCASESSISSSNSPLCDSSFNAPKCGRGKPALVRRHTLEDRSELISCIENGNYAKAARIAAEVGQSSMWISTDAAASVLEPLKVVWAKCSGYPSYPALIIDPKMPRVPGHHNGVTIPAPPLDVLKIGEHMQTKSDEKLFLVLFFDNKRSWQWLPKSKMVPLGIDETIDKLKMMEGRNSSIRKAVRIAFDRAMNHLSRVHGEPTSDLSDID

[6] = target: T6, BRD2(2) (Homo sapiens, UniProt P25440); experiment: as above; settings: for Percent Control BRD2(2): compound concentration 1000 nM, lower percentage control = stronger affinity
T6 construct: BRD2(2); purchased Eurofins DiscoverX (BROMOscan, BromoMAX)
T6 sequence (P25440 344-455 limits assumed): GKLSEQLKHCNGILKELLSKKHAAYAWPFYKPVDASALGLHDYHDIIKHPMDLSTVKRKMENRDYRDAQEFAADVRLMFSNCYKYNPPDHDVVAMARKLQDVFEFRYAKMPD

[7] = target: T7, BRD3(1) (Homo sapiens, UniProt Q15059); experiment: as above; settings: for Percent Control BRD3(1): compound concentration 1000 nM, lower percentage control = stronger affinity
T7 construct: BRD3(1); purchased Eurofins DiscoverX (BROMOscan, BromoMAX)
T7 sequence (Q15059 24-144 limits assumed): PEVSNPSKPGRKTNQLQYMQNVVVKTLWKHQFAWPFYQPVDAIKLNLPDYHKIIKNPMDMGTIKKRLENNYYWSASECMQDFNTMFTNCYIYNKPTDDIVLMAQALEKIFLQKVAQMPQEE

[8] = target: T8, BRDT(1) (Homo sapiens, UniProt Q58F21); experiment: as above; settings: for Percent Control BRDT(1): compound concentration 1000 nM, lower percentage control = stronger affinity
T8 construct: BRDT(1); purchased Eurofins DiscoverX (BROMOscan, BromoMAX)

[9] = target: T9, CREBBP (Homo sapiens, UniProt Q92793); experiment: as above; settings: for Percent Control CREBBP: compound concentration 1000 nM, lower percentage control = stronger affinity
T9 construct: purchased Eurofins DiscoverX (BROMOscan, BromoMAX)
T9 sequence (Q92793 whole entry): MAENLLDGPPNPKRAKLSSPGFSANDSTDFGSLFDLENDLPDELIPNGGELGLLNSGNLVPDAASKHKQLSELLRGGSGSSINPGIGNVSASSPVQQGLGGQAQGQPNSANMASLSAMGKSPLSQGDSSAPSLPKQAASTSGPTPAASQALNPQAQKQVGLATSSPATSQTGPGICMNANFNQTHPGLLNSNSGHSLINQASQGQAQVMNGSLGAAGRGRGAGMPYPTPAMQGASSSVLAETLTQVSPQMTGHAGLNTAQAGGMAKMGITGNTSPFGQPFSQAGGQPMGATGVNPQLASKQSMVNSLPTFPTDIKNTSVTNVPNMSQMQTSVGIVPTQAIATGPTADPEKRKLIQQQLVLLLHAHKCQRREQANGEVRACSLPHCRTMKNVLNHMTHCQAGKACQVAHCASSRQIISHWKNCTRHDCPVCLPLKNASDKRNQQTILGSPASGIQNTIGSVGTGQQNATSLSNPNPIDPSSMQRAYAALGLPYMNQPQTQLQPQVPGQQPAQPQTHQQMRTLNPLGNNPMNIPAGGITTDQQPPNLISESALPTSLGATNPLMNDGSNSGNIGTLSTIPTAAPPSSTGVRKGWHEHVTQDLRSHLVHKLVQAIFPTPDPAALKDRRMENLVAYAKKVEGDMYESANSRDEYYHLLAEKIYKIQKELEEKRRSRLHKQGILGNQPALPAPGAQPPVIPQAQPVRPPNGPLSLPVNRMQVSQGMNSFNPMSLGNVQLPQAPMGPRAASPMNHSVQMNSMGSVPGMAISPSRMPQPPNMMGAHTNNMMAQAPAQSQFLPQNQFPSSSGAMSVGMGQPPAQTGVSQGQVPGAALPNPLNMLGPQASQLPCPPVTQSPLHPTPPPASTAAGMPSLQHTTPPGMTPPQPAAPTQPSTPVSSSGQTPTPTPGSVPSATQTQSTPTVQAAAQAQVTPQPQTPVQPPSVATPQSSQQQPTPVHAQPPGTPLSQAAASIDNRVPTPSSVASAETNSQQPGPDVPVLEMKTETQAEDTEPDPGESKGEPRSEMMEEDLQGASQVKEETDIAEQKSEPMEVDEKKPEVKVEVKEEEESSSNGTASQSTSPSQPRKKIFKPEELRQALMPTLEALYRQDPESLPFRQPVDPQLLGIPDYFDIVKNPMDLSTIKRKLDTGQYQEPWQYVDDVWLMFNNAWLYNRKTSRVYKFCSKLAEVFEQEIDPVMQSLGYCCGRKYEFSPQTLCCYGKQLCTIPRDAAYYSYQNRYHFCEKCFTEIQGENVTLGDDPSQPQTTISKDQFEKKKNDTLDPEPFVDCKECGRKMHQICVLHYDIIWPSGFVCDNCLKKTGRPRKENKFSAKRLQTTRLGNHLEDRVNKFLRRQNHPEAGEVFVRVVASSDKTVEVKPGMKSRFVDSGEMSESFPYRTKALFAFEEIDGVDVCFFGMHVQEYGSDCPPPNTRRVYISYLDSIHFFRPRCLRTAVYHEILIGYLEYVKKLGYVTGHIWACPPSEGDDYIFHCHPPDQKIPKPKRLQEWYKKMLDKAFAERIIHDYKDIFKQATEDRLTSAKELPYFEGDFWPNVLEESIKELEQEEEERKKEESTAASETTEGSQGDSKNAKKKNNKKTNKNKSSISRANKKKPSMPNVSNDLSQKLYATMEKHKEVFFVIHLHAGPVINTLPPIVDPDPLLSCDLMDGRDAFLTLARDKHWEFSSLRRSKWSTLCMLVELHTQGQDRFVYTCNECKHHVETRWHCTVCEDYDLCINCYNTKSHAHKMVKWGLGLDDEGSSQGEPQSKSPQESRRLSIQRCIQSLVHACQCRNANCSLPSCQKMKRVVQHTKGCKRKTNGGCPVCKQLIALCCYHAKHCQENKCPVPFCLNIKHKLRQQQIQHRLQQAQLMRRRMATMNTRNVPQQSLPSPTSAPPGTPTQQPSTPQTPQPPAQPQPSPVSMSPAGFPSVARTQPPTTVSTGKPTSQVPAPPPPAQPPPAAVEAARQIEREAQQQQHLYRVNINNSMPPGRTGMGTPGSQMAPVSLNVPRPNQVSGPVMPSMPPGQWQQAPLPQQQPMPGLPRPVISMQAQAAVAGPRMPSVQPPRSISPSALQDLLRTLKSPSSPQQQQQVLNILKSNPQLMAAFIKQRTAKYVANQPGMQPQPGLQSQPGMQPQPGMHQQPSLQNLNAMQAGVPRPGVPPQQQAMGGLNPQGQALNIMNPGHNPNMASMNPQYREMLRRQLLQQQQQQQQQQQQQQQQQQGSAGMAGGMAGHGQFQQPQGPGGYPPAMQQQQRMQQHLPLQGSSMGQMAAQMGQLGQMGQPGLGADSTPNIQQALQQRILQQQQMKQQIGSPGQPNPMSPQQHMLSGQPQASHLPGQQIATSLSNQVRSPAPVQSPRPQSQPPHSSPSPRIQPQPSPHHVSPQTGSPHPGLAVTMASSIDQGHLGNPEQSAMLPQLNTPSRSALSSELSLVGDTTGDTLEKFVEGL

[10] = target: T10, PCAF (Homo sapiens, UniProt Q92831); experiment: as above; settings: for Percent Control PCAF: compound concentration 1000 nM, lower percentage control = stronger affinity
T10 construct: purchased Eurofins DiscoverX (BROMOscan, BromoMAX)
T10 sequence (Q92831 whole entry): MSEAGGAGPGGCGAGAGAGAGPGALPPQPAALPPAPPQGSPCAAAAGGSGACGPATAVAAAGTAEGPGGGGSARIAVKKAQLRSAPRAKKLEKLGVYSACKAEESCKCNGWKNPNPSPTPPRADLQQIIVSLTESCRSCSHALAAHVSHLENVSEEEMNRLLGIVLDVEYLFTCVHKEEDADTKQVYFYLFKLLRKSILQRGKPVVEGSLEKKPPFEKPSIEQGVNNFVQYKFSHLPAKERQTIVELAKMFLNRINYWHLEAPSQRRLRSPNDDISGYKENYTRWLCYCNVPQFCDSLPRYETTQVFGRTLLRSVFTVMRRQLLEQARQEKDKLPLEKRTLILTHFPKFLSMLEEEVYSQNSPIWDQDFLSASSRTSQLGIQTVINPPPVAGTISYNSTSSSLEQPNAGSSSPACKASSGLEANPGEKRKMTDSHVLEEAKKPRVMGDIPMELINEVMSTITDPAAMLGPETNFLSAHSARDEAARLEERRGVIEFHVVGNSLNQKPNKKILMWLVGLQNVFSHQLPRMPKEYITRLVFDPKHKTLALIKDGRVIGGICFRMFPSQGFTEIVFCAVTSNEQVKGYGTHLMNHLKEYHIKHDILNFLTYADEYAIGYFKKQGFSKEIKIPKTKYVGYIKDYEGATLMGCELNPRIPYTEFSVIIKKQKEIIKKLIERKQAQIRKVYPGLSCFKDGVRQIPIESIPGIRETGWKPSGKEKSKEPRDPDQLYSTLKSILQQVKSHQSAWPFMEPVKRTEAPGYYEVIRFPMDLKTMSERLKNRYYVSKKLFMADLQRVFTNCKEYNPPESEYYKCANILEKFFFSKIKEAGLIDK

[11] = 4 C, geometric mean and SD of two to five measurements
[12] = gray boxed value: no reproducible signals observed at the concentrations used

With `CC[C@H](C)[C@@H]1NC(=O)[C@H]([C@@H](C)O)NC(=O)[C@H](CCCCN)NC(=O)[C@H](Cc2c[nH]c3ccccc23)NC(=O)CSC[C@@H](C(N)=O)NC(=O)[C@H](CCC(N)=O)NC(=O)[C@H](CCCCNC(C)=O)NC(=O)[C@H]([C@@H](C)O)NC(=O)[C@H](CCCNC(=N)N)NC(=O)[C@H](Cc2c[nH]c3ccccc23)NC(=O)[C@H]([C@@H](C)O)NC(=O)[C@H](CCCCNC(C)=O)NC(=O)CNC(=O)[C@H](CCCCNC(C)=O)NC1=O` [3.1B] ({CH2CO}-WKTIK(Ac)GK(Ac)TWRTK(Ac)QC-NH2; thioether N-14) the Kd [1, 11] was 0.00027 ± 0.00016 µM, the Kd [2, 12] was greater than 10 µM and the Kd [3, 11] was 0.00055 ± 0.00033 µM. For the same molecule, the Kd [4, 12] was greater than 10 µM, the “Percent Control BRD1” value [5] was 100% and the “Percent Control BRD2(2)” value [6] was 100%. For the same molecule, the “Percent Control BRD3(1)” value [7] was 1.4%, the “Percent Control BRDT(1)” value [8] was 0% and the “Percent Control CREBBP” value [9] was 100%. The “Percent Control PCAF” value [10] was 94%.

Molecule `CC[C@H](C)[C@@H]1NC(=O)[C@H](Cc2c[nH]c3ccccc23)NC(=O)[C@H](Cc2c[nH]c3ccccc23)NC(=O)CSC[C@@H](C(N)=O)NC(=O)CNC(=O)[C@H](CCCCNC(C)=O)NC(=O)[C@H](CCCCN)NC(=O)[C@H](C(C)C)NC(=O)[C@H](CCCCNC(C)=O)NC(=O)[C@@H]2CCCN2C(=O)[C@H]([C@@H](C)CC)NC1=O` [3.1C] ({CH2CO}-WWIIPK(Ac)VKK(Ac)GC-NH2; thioether N-11) has a Kd [1, 11] of 0.00019 ± 4e-05 µM, a Kd [2, 11] of 0.013 ± 0.012 µM and a Kd [3, 11] of 0.00035 ± 0.0001 µM. For the same molecule, the Kd [4, 11] was 0.34 ± 0.35 µM, the “Percent Control BRD1” value [5] was 97% and the “Percent Control BRD2(2)” value [6] was 0.35%. For the same molecule, the “Percent Control BRD3(1)” value [7] was 0%, the “Percent Control BRDT(1)” value [8] was 0% and the “Percent Control CREBBP” value [9] was 100%. The “Percent Control PCAF” value [10] was 96%.

With `CC[C@H](C)[C@H](NC(=O)[C@H](CCCNC(=N)N)NC(=O)[C@H](CCCCNC(C)=O)NC(=O)[C@H](CCCNC(=N)N)NC(=O)[C@H](CC(C)C)NC(=O)[C@@H]1CSCC(=O)N[C@@H](Cc2c[nH]c3ccccc23)C(=O)N[C@@H](CCCCNC(C)=O)C(=O)NCC(=O)N[C@@H](Cc2ccc(O)cc2)C(=O)N[C@@H](CC(C)C)C(=O)N1)C(=O)N[C@@H](CCC(N)=O)C(=O)N[C@@H](CCCNC(=N)N)C(=O)N[C@H](C(=O)N[C@@H](Cc1ccc(O)cc1)C(=O)N[C@@H](CC(N)=O)C(N)=O)[C@@H](C)O` [4.2C] ({CH2CO}-WK(Ac)GYLCLRK(Ac)RIQRTYN-NH2; thioether N-6) the Kd [1, 12] was greater than 10 µM, the Kd [2, 11] was 0.11 ± 0.116 µM and the Kd [3, 12] was greater than 10 µM. For the same molecule, the Kd [4, 11] was 0.036 ± 0.035 µM, the percent of control binding at 1 µM [5] was 84% and the remaining binding at 1 µM ([6]; read-out: Percent Control BRD2(2)) was 17%. The remaining binding at 1 µM ([7]; read-out: Percent Control BRD3(1)) was 100%, the remaining binding at 1 µM ([8]; read-out: Percent Control BRDT(1)) was 85% and the remaining binding at 1 µM ([9]; read-out: Percent Control CREBBP) was 100%. The percent of control binding at 1 µM [10] was 100%.
